In patent US5362739A (priority 1990, dated 1994):
Where a name gives a salt, the structure may show the parent alone. Read-outs that look alike come from different tables or passages of the source.

Assays:
muscarinic receptors [1] = type: binding, rat (Hooded Lister); settings: 0.27 nM 3H-QNB, rat cerebral cortex membranes, 37° C., 30 min
muscarinic receptors [2] = assay: Radio ligand binding: displacement of the muscarinic agonist 3H-Oxotremorine-M (3H-OXO-M); parameters: species or system rat (Hooded Lister); settings: 2 nM 3H-OXO-M, rat cerebral cortex membranes, 2 mM magnesium chloride, 37° C., 30 min

CON=C(C#N)C1=CC2CCN(C1)C2 (racemic) [Compound E6, (±)-α-(Methoxyimino)-α-(1-azabicyclo[3.2.1]oct-3-en-3-yl)acetonitrile oxalate salt]
IC50 (muscarinic receptors [1]): 330 nM | IC50 (muscarinic receptors [2]): 21 nM

CON=CC1=CC2CCN(C1)C2 (mixture of isomers) [Compound E4, (±) syn-1-Azabicyclo[3.2.1]oct-3-en-3-ylcarboxaldehyde-O-methyloxime hydrochloride salt]
IC50 (muscarinic receptors [1]): 1250 nM | IC50 (muscarinic receptors [2]): 70 nM

CON=C(F)C1=CC2CCN(C1)C2 (racemic) [Compound E3, (±) 1-Azabicyclo[3.2.1]oct-3-en-3-yl-N-methoxcarboximidoyl fluoride oxalate salt]
IC50 (muscarinic receptors [1]): 320 nM | IC50 (muscarinic receptors [2]): 26 nM

CON=C(Cl)C1=CC2CCN(C1)C2 (racemic) [Compound E2, (±) 1-Azabicyclo[3.2.1]oct-3-en-3-yl-N-methoxycarboximidoyl chloride oxalate salt]
IC50 (muscarinic receptors [1]): 1100 nM | IC50 (muscarinic receptors [2]): 100 nM

CON=C(C)C1=CC2CCN(C1)C2 (racemic) [Compound E5, (±)trans 3-Acetyl-1-azabicyclo[3.2.1]oct-3-ene-O-methyloxime hydrochloride salt]
IC50 (muscarinic receptors [1]): 1450 nM | IC50 (muscarinic receptors [2]): 175 nM
